According to the supplement of paper PMC10307832:

Legend:
Assay in all cases: relative viability (nuclei count vs DMSO), 5 days (fraction); higher = more cells survive
CAP-232 + Pictilisib = compound: C[C@H]([C@@H](C(=O)N)NC(=O)[C@@H]1CSSC[C@@H](C(=O)N[C@H](C(=O)N[C@@H](C(=O)N[C@H](C(=O)N1)CCCCN)CC2=CNC3=CC=CC=C32)CC4=CC=C(C=C4)O)NC(=O)[C@@H](CC5=CC=CC=C5)N)O [CAP-232] + CS(=O)(=O)N1CCN(Cc2cc3nc(-c4cccc5[nH]ncc45)nc(N4CCOCC4)c3s2)CC1 [Pictilisib] (partner 1 µM)
In short: (§1)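 Relative viability equals treated-well nuclei counts divided by vehicle-well nuclei counts. Counts came from 4× images of lung cancer cell lines grown in 1536-well plates for 5 days after pin-tool dosing on the day after seeding. Dosing used one drug alone or a fixed anchor-drug dose plus five library-drug doses (not always all listed) in √10 steps, and values are medians of duplicate plates.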

CAP-232 + Olaparib = compound: C[C@H]([C@@H](C(=O)N)NC(=O)[C@@H]1CSSC[C@@H](C(=O)N[C@H](C(=O)N[C@@H](C(=O)N[C@H](C(=O)N1)CCCCN)CC2=CNC3=CC=CC=C32)CC4=CC=C(C=C4)O)NC(=O)[C@@H](CC5=CC=CC=C5)N)O [CAP-232] + O=C(c1cc(Cc2n[nH]c(=O)c3ccccc23)ccc1F)N1CCN(C(=O)C2CC2)CC1 [Olaparib] (partner 8 µM)
In short: as §1

CAP-232 + Trametinib = compound: C[C@H]([C@@H](C(=O)N)NC(=O)[C@@H]1CSSC[C@@H](C(=O)N[C@H](C(=O)N[C@@H](C(=O)N[C@H](C(=O)N1)CCCCN)CC2=CNC3=CC=CC=C32)CC4=CC=C(C=C4)O)NC(=O)[C@@H](CC5=CC=CC=C5)N)O [CAP-232] + CC(=O)Nc1cccc(-n2c(=O)n(C3CC3)c(=O)c3c(Nc4ccc(I)cc4F)n(C)c(=O)c(C)c32)c1 [Trametinib] (partner 0.02 µM)
In short: as §1

CAP-232 + AZD7762 = compound: C[C@H]([C@@H](C(=O)N)NC(=O)[C@@H]1CSSC[C@@H](C(=O)N[C@H](C(=O)N[C@@H](C(=O)N[C@H](C(=O)N1)CCCCN)CC2=CNC3=CC=CC=C32)CC4=CC=C(C=C4)O)NC(=O)[C@@H](CC5=CC=CC=C5)N)O [CAP-232] + NC(=O)Nc1cc(-c2cccc(F)c2)sc1C(=O)N[C@H]1CCCNC1 [AZD7762] (partner 0.2 µM)
In short: as §1

CAP-232 + Crizotinib = compound: C[C@H]([C@@H](C(=O)N)NC(=O)[C@@H]1CSSC[C@@H](C(=O)N[C@H](C(=O)N[C@@H](C(=O)N[C@H](C(=O)N1)CCCCN)CC2=CNC3=CC=CC=C32)CC4=CC=C(C=C4)O)NC(=O)[C@@H](CC5=CC=CC=C5)N)O [CAP-232] + C[C@@H](Oc1cc(-c2cnn(C3CCNCC3)c2)cnc1N)c1c(Cl)ccc(F)c1Cl [Crizotinib] (partner 1 µM)
In short: as §1

Cell Line | relative viability (CAP-232 + Pictilisib; first compound 0.4 µM) | relative viability (CAP-232 + Pictilisib; first compound 1.265 µM) | relative viability (CAP-232 + Pictilisib; first compound 4 µM) | relative viability (CAP-232 + Pictilisib; first compound 12.65 µM) | relative viability (CAP-232 + Olaparib; first compound 0.4 µM) | relative viability (CAP-232 + Olaparib; first compound 1.265 µM) | relative viability (CAP-232 + Olaparib; first compound 4 µM) | relative viability (CAP-232 + Olaparib; first compound 12.65 µM) | relative viability (CAP-232 + Trametinib; first compound 0.4 µM) | relative viability (CAP-232 + Trametinib; first compound 1.265 µM) | relative viability (CAP-232 + Trametinib; first compound 4 µM) | relative viability (CAP-232 + Trametinib; first compound 12.65 µM) | relative viability (CAP-232 + AZD7762; first compound 0.4 µM) | relative viability (CAP-232 + AZD7762; first compound 1.265 µM) | relative viability (CAP-232 + AZD7762; first compound 4 µM) | relative viability (CAP-232 + AZD7762; first compound 12.65 µM) | relative viability (CAP-232 + Crizotinib; first compound 0.4 µM) | relative viability (CAP-232 + Crizotinib; first compound 1.265 µM) | relative viability (CAP-232 + Crizotinib; first compound 4 µM) | relative viability (CAP-232 + Crizotinib; first compound 12.65 µM)
LOU-NH91 | 0.479 | 0.512 | 0.501 | 0.438 | 0.945 | 0.873 | 0.907 | 0.574 | 0.834 | 0.811 | 0.783 | 0.445 | 0.857 | 0.758 | 0.799 | 0.287 | 0.748 | 0.76 | 0.921 | 0.705
NCI-H1734 | 0.393 | 0.44 | 0.455 | 0.462 | 0.596 | 0.609 | 0.605 | 0.512 | 0.506 | 0.656 | 0.645 | 0.504 | 0.637 | 0.578 | 0.527 | 0.426 | 0.674 | 0.577 | 0.758 | 0.65
NCI-H727 | – | 0.346 | 0.361 | 0.28 | 0.705 | 0.613 | 0.757 | 0.648 | 0.383 | 0.397 | 0.442 | 0.415 | 0.572 | 0.586 | 0.612 | 0.617 | – | 0.757 | 1.04 | 0.82
NCI-H596 | 0.421 | 0.388 | 0.36 | 0.328 | 0.713 | 0.612 | 0.583 | 0.641 | 0.901 | 0.675 | 0.851 | 0.765 | 1.1 | 1.13 | 1.05 | 1.09 | 1.15 | 0.988 | 0.89 | 1.05
NCI-H1755 | 0.379 | 0.402 | 0.452 | 0.415 | 0.911 | 0.881 | 0.935 | 0.824 | 0.765 | 0.724 | 0.792 | 0.771 | 0.453 | 0.396 | 0.536 | 0.403 | 0.988 | 0.778 | 0.976 | 0.747
NCI-H647 | 0.431 | 0.354 | 0.482 | 0.365 | 0.699 | 0.7 | 0.635 | 0.373 | 0.321 | 0.504 | 0.564 | 0.249 | 0.767 | 0.33 | 0.696 | 0.282 | 1.28 | 1.01 | 1.05 | 0.871
HCC-15 | 0.778 | 0.764 | 0.806 | 0.54 | 0.65 | 0.711 | 0.737 | 0.55 | 0.376 | 0.364 | 0.393 | 0.267 | 1.36 | 1.28 | 1.34 | 1.14 | 0.807 | 0.816 | 0.924 | 0.825
NCI-H2126 | 0.501 | 0.468 | 0.482 | 0.525 | 0.899 | 0.866 | 0.992 | 0.914 | 0.622 | 0.523 | 0.561 | 0.602 | 1.11 | 1.01 | 1.18 | 1.01 | 1.06 | 1.03 | 1.13 | 1.09
NCI-H2085 | 0.475 | 0.421 | 0.355 | 0.538 | 0.825 | 0.764 | 0.743 | 0.771 | 0.514 | 0.586 | 0.532 | 0.569 | 1.04 | 1.03 | 0.988 | 0.964 | 0.728 | 0.882 | 0.821 | 0.853
BEN | 0.569 | 0.55 | 0.601 | 0.498 | 1.02 | 1.04 | 0.959 | 1.07 | 1.15 | 0.987 | 0.997 | 0.914 | 0.789 | 0.714 | 0.7 | 0.553 | 0.859 | 0.98 | 0.82 | 0.772
NCI-H650 | 0.84 | 0.821 | 1.06 | 0.564 | 0.434 | 0.427 | 0.341 | 0.361 | 0.821 | 1.04 | 0.896 | 1.01 | 1.29 | 1.03 | 1.02 | 0.951 | 0.7 | 0.767 | 0.795 | 0.494
LCLC-103H | 0.707 | 0.564 | 0.536 | 0.595 | 0.882 | 0.752 | 0.733 | 0.751 | 0.662 | 0.666 | 0.723 | 0.703 | 0.89 | 0.792 | 0.891 | 0.747 | 1.1 | 0.984 | 0.98 | 1.06
PC-3 [JPC-3] | 0.798 | 0.741 | 0.84 | 0.763 | 1.16 | 1.21 | 1.2 | 1.08 | 0.703 | 0.7 | 0.69 | 0.7 | 1.02 | 0.735 | 0.873 | 0.794 | 1.01 | 1.02 | 0.966 | 0.985
NCI-H1915 | 0.878 | 0.852 | 1.01 | 0.914 | 0.243 | 0.248 | 0.249 | 0.267 | 0.207 | 0.307 | 0.291 | 0.371 | 0.771 | 0.685 | 0.704 | 0.762 | 1.04 | 0.915 | 1.04 | 0.961
